Reference: patent publication US20250360233A1, “Central Neurodegeneration Imaging Agent and Method of Preparing the Same” (National Atomic Research Institute, priority 2024, published 2025)
Like-named read-outs stand apart in the source and are kept apart here.

How the values were obtained:
[1] = test system: mouse brains (PD brain lesions); assay: PET brain imaging of Rotenone-induced Parkinson's disease mice versus Sham; type: in vivo; conditions: for F-18 images of PD brains compared with the control group (Sham): Rotenone tube feeding 12 weeks
Excerpt: Regarding its application, the present invention entails feeding Rotenone to mice by tube feeding continuously for 12 weeks to induce the mouse brains to manifest Parkinson's disease (PD) symptom animal mode for function as the experimental group, treating mice with placebo to serve as the control group (Sham) without manifesting any PD lesions, performing imaging of the mouse brains with an F-18-FE-PE21, F-18-FDOPA and F-18-α-syn3 respectively, displaying the longitudinal-section and cross-section images of the mouse brains, and comparing the intake of the F-18 imaging agent into the mouse brains.

amyloid-β(Aβ) = amyloid-β(Aβ) (Homo sapiens, UniProt P05067); assay: affinity comparison, amyloid-β; type: binding; conditions: read-out: amyloid-β(Aβ) value compared with the α-synuclein IC50
Excerpt: (§1) Therefore, the present invention not only effectively reduces the logP value but also passes a test of affinity, specificity, and parallel artificial membrane.

[2] = F-18-α-syn3 serum stability; type: in vitro ADME; conditions: serum at 37° C., after a hour
Description: Moreover, the present invention discloses giving considerations to the F-18-α-syn3 formula and serum stability and thus conducting F-18-α-syn3 formula research to attain a recycling rate as high as 90.1%. Regarding a test of F-18-α-syn3 serum stability, medications are placed within serum at 37° C., achieving radioactive chemical purity of 91.5% even after a hour.

[3] = parallel artificial membrane permeation assay (PAMPA) simulating the blood-brain barrier; type: in vitro ADME
Excerpt: as §1

[4] = logP analysis of the F-18-α-syn3; type: physicochemical
Excerpt: The experimental results of the logP analysis of the F-18-α-syn3 of the present invention are as follows:
The above data is about testing the logP of the F-18-α-syn3 labeling finished product solution repeatedly. The result confirms that all the logP values range from 2 to 3.

α-synuclein = α-synuclein (Homo sapiens, UniProt P37840); assay: test tube competition test, α-synuclein; conditions: read-out: IC50 (50% binding inhibition)
Excerpt: as §1

[5] = Rotenone PD mice versus Sham, PET

Chain of amyloid-β(Aβ) (P05067 672-713 limits assumed): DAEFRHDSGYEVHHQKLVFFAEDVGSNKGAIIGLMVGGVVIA

Q: With `N[C@@H](Cc1cc(O)c(O)cc1[18F])C(=O)O` [F-18-FDOPA] as the compound, how does the “selectivity in terms of brain distribution” value [1, 5] read?
A: Its value is “no selectivity”.

Q: What about the “F-18 images of PD brains compared with the control group (Sham)” value ([1]; mice, PET) of the same compound?
A: Its value is “no difference and no specificity”.

Q: With `Cc1ccc([C@H]2C[C@@H]3CC[C@H]([C@H]2C(=O)OCC[18F])N3C/C=C/I)cc1` [F-18-FE-PE21] as the compound, how does the “brain intake, experimental group versus control group” value [1, 5] read?
A: The value was “lower”.

Q: What about the “F-18 images of PD brains compared with the control group (Sham)” value ([1]; mice, PET) of the same compound?
A: The value was “no difference and no specificity”.

Q: Which IC50 (amyloid-β(Aβ)) does the source give for `O=C1/C(=C\C=C\c2ccc([N+](=O)[O-])cc2)c2ccccc2N1CCOCCF` [F-18-α-syn3, (Z)-1-(2-(2-fluoroethoxy)ethyl)-3-((E)-3-(4-nitrophenyl)allylidene) indolin-2-one] here?
A: The IC50 was 142 nM.

Q: What about the “radioactive chemical purity in serum” value [2] of the same compound?
A: The value was 91.5%.

Q: And the background absorption level [1, 5]?
A: The background absorption level was “obviously lower”.

Q: And the “F-18 images of PD brains compared with the control group (Sham)” value ([1]; mice, PET)?
A: Its value is “clearer F-18 images”.

Q: And the “passage through the blood-brain barrier (BBB) into mouse brains” value ([1]; mice)?
A: The value was “can pass through the blood-brain barrier”.

Q: What about the “concentration that ensures the satisfaction of PAMPA” value [3] of the same compound?
A: The value was “at least 6 nM”.

Q: And the PAMPA pass rate ([3]; concentration of 60 nM)?
A: Its PAMPA pass rate is 56.25%.

Q: And the logP ([4]; 50 uCi, read-out: logP)?
A: Its logP is 2.63.

Q: What about the logP ([4]; end solution, 22 uCi, read-out: logP) of the same compound?
A: The logP was 2.41.

Q: And the logP ([4]; end solution, 50 uCi, read-out: logP)?
A: Its logP is 2.07.

Q: What about the logP ([4]; labeling finished product solution tested repeatedly, read-out: logP, range of all repeated tests) of the same compound?
A: Its logP is 2 to 3.

Q: And the IC50 (α-synuclein)?
A: Its IC50 is 172 nM.
